Reference: patent US8460867B2, “Methods of treating psychosis and schizophrenia based on polymorphisms in the CNTF gene” (Novartis AG, priority 2001, dated 2013)

B1: CNTF: Ciliary Neurotrophic Factor, survival factor for neuronal cell types, member of the interleukin-6 cytokine family (protein, UniProt P26441 1-200, looked up)
Ciliary neurotrophic factor: MAFTEHSPLTPHRRDLCSRSIWLARKIRSDLTALTESYVKHQGLNKNINLDSADGMPVASTDQWSELTEAERLQENLQAYRTFHVLLARLLEDQQVHFTPTEGDFHQAIHTLLLQVAAFAYQIEELMILLEYKIPRNEADGMPINVGDGGLFEKKLWGLKVLQELSQWTVRSIHDLRFISSHQTGIPARGSHYIANNKKM

Assays:
schizophrenic patients = assay: Clinical trial of Iloperidone in schizophrenic patients, pharmacogenetic analysis by CNTF 103 G>A genotype; assay type: in vivo, human
Excerpt: In an effort to identify genetic factors that may associate with treatment response to Iloperidone, the relationship between a polymorphism in the CNTF (ciliary neurotrophic factor) gene (located on 11q12.2, the polymorphism being 103 G>A in GenBank sequence X55890 (Version 1), see PubMed: 9285965) and the clinical response to the antipsychotic Iloperidone in a clinical trial was investigated. This trial was a randomized, double-blind, placebo- and risperidone-controlled, multicenter study to evaluate the efficacy and safety of two non-overlapping dose ranges of lloperidone (12 or 16 mg/d and 20 or 24 mg/d and risperidone (6 or 8 mg/d) compared with placebo, given twice-daily (b.i.d) for 42 days to schizophrenic patients followed by a long-term treatment phase with lloperidone given once daily (q.d) at doses of 4, 8, 12, 16, or 24 mg/d for 46 weeks to patients with schizophrenia.
Pharmacogenetic analysis for candidate gene polymorphisms was conducted in Phase II of the clinical trial. It was determined whether the CNTF (ciliary neurotrophic factor) 103 G>A polymorphism (GenBank sequence X55890 (Version 1)) 103 G>A, (expressed protein alteration FS63 TER) was associated with any of the clinical parameters of efficacy studied in the course of the clinical trial and specifically changes in the BPRSA, Total PANNS, Positive PANNS, Negative PANNS and General PANNS scales.
A total of 207 unique blood samples were collected from the patients at the trial sites. The DNA was extracted by Covance (Geneva) using the PUREGENE™ DNA Isolation Kit (D-50K). The CNTF 103 G>A polymorphism (GenBank sequence X55890 (Version 1)) polymorphism was described by Takahashi, see, Takahashi et al. Nature Genet. 7: 79-84, 1994.
The probe sets for genotyping were designed and synthesized by Third Wave Technologies, Inc (Madison, Wis.). […]

ob/ob mice = conditions: systemic administration; cited from earlier work
pmn/pmn mice = conditions: also when degenerative alterations were already present; cited from earlier work
db/db mice = conditions: which lack a functional leptin receptor; cited from earlier work
[1] = system: mice with diet-induced obesity; conditions: partially resistant to leptin; cited from earlier work

Row | Molecule | association of Total PANSS and BPRSA with the CNTF 103 G>A polymorphism (schizophrenic patients; 12-16 mg dose (Group A), analysis of variance within treatments, p<0.001) | response of the GG type versus the placebo (schizophrenic patients; 12-16 mg treatment group, GG type of the CNTF gene, p<0.001) | treatment response (BPRSA and Total PANNS scales), GG type versus non-GG type of the CNTF gene (schizophrenic patients; 12-16 mg treatment group, schizophrenic patients, 42 days b.i.d.) | induction of the tis-11 primary response gene in the arcuate nucleus (ob/ob mice) | motor function and morphologic symptoms of neural degeneration (pmn/pmn mice) | obesity-related phenotypes (db/db mice) | obesity-related phenotypes [1]
1 | COc1cc(C(C)=O)ccc1OCCCN1CCC(c2noc3cc(F)ccc23)CC1 [Iloperidone] | significantly associated | highly significant | responded significantly better than the non-GG type | – | – | – | –
2 | LEP: leptin (LEP) cytokine | – | – | – | rapid induction | – | – | –
3 | B1 | – | – | – | rapid induction | successfully improved motor function and reduced the morphologic symptoms of neural degeneration | reduced obesity-related phenotypes | reduced obesity-related phenotypes
